# Test results reported in ChEMBL document CHEMBL4823296, “NMR-Guided Design of Potent and Selective EphA4 Agonistic Ligands” (J Med Chem, 2021).
# Non-standard residues stand in square brackets, D forms with d. Residues, ends and D or L forms follow the SMILES beside them. *: point of attachment. Phe(4-(2-MeO-Ph)) = COc1ccccc1-c1ccc(C[C@H](N)C(=O)O)cc1; Cyclohexanoyl(1S,3S-3-NH2) = N[C@H]1CCC[C@H](C(=O)*)C1; Phe(4-guanidino) = N=C(N)Nc1ccc(C[C@H](N)C(=O)O)cc1; Trp(6-OMe) = COc1ccc2c(C[C@H](N)C(=O)O)c[nH]c2c1; Trp(5-OH) = N[C@@H](Cc1c[nH]c2ccc(O)cc12)C(=O)O; NHPh(4-CH2-morpholino) = c1cc(N*)ccc1CN1CCOCC1; NH(4-morpholinophenyl) = c1cc(N2CCOCC2)ccc1N*; Trp(7-aza) = N[C@@H](Cc1c[nH]c2ncccc12)C(=O)O; Bip = N[C@@H](Cc1ccc(-c2ccccc2)cc1)C(=O)O; 1Nal = N[C@@H](Cc1cccc2ccccc12)C(=O)O; 2Nal = N[C@@H](Cc1ccc2ccccc2c1)C(=O)O; d(hArg) = N=C(N)NCCCC[C@@H](N)C(=O)O; hArg = N=C(N)NCCCC[C@H](N)C(=O)O; X4 = COc1cc(CN*)cc(OC)c1; NHPh = c1ccc(N*)cc1; GABA = NCCCC(=O)O; X1 = Oc1ccccc1CN*; X2 = Oc1ccccc1N*; X3 = Oc1cccnc1N*
# Key:
# [1] = biological target: T1, Ephrin type-A receptor 4 (Homo sapiens, UniProt P54764); assay: Binding affinity to N-terminal His tagged EphA4 LBD (unknown origin) (29 to 209 residues) expressed in Rosetta-Gami B(DE3) cells by isothermal titration calorimetry
# [2] = biological target: T1, Ephrin type-A receptor 4
# Description: Binding affinity to N-terminal His tagged EphA4 LBD (unknown origin) (29 to 209 residues) expressed in Rosetta-Gami B(DE3) cells assessed as change in enthalpy by isothermal titration calorimetry
# [3] = biological target: T1, Ephrin type-A receptor 4; remark: listed apart in the source
# Description: Binding affinity to N-terminal His tagged EphA4 LBD (unknown origin) (29 to 209 residues) expressed in Rosetta-Gami B(DE3) cells assessed as change in entropy by isothermal titration calorimetry
# [4] = Aqueous solubility of compound; format: physicochemical; conditions: buffer
# [5] = biological target: Ephrin type-A receptor 2 (Homo sapiens, UniProt P29317); assay: Binding affinity to N-terminal His tagged EphA2 LBD (27 to 200 residues) (unknown origin) expressed in Origami (DE3) cells by isothermal titration calorimetry
# Chain of Ephrin type-A receptor 2 (P29317 whole entry, the tested form may be a part): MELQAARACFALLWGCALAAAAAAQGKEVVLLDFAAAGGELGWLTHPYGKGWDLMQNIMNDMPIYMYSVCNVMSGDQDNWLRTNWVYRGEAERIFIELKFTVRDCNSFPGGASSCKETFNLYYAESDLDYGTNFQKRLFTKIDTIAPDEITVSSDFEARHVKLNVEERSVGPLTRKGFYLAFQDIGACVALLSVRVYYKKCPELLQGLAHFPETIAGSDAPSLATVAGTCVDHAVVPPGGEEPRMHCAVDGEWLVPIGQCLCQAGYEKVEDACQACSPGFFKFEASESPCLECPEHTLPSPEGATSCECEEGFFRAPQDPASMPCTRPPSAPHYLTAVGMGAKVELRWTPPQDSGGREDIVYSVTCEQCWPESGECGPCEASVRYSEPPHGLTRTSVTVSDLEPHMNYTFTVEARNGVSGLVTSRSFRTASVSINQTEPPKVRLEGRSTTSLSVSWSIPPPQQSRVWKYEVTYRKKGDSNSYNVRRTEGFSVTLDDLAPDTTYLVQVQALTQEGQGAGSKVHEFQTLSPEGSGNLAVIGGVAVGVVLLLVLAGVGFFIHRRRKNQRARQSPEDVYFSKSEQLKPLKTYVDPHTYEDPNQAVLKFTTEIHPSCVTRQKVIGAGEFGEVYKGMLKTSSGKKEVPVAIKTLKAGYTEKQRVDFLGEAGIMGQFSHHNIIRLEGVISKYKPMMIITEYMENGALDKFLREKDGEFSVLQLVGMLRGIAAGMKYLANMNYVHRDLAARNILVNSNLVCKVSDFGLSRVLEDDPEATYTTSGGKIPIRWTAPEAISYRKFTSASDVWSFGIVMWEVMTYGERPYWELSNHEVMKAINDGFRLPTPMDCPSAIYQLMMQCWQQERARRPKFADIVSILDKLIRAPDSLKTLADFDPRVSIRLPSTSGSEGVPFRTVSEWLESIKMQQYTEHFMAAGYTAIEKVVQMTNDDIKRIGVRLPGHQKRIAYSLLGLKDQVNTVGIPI
# T1 sequence (P54764 whole entry, the tested form may be a part): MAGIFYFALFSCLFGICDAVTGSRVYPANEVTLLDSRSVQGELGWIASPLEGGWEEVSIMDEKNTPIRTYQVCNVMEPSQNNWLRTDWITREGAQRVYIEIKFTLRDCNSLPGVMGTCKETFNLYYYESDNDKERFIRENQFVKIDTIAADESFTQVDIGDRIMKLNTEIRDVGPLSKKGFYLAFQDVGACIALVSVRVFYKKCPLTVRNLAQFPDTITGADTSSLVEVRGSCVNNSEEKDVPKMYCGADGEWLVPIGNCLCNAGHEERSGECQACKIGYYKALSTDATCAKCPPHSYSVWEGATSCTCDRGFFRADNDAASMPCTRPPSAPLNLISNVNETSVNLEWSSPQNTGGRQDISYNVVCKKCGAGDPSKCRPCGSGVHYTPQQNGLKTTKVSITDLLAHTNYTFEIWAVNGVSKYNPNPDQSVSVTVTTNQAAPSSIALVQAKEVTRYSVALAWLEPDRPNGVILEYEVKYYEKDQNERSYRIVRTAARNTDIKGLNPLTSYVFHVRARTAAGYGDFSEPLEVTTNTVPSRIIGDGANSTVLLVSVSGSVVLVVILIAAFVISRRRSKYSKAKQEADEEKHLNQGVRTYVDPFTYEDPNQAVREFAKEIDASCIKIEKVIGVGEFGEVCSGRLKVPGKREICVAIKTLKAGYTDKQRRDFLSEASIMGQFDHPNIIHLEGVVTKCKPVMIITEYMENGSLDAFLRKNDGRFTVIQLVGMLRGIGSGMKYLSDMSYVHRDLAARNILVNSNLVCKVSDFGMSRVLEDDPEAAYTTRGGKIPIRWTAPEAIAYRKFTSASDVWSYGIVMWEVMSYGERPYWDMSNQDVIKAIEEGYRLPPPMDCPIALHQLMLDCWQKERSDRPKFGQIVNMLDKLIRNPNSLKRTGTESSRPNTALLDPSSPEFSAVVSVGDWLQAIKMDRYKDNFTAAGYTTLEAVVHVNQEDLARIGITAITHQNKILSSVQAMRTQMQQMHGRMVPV
Structure (SMILES),Kd [1],deltaH [2],-TdeltaS [3],solubility [4],Kd [5]
N=C(N)NCCCC[C@H](NC(=O)[C@H](Cc1ccc(-c2ccccc2)cc1)NC(=O)[C@H](Cc1c[nH]c2ccc(O)cc12)NC(=O)[C@@H]1CC[C@@H](N)C1)C(N)=O,740 nM,-9.82 kcal/mol,1.46 kcal/mol,,
"N=C(N)NCCCC[C@H](NC(=O)[C@H](Cc1ccc(-c2ccccc2)cc1)NC(=O)[C@H](Cc1c[nH]c2ccc(O)cc12)NC(=O)[C@H]1CCC[C@H](N)C1)C(=O)NCC(=O)Nc1ccc(CN2CCOCC2)cc1 ({Cyclohexanoyl(1S,3S-3-NH2)}-[Trp(5-OH)][Bip][hArg]G-{NHPh(4-CH2-morpholino)})",144 nM,,,> 50 mM,Not Active
N=C(N)NCCCC[C@H](NC(=O)[C@H](Cc1ccc(-c2ccccc2)cc1)NC(=O)[C@H](Cc1c[nH]c2ccc(O)cc12)NC(=O)[C@@H]1CCC[C@@H](N)C1)C(N)=O,1210 nM,-9.39 kcal/mol,1.32 kcal/mol,,
N=C(N)NCCCC[C@H](NC(=O)[C@H](Cc1ccc(-c2ccccc2)cc1)NC(=O)[C@H](Cc1c[nH]c2ccc(O)cc12)NC(=O)CCCN)C(=O)NCC(=O)Nc1ccc(N2CCOCC2)cc1 (H-[GABA][Trp(5-OH)][Bip][hArg]G-{NH(4-morpholinophenyl)}),94 nM,-11.2 kcal/mol,1.63 kcal/mol,,
N=C(N)NCCCC[C@H](NC(=O)[C@H](Cc1ccc(-c2ccccc2)cc1)NC(=O)[C@H](Cc1c[nH]c2ccc(O)cc12)NC(=O)CCCN)C(=O)NCC(=O)Nc1ncccc1O (H-[GABA][Trp(5-OH)][Bip][hArg]G-X3),488 nM,-9.48 kcal/mol,0.86 kcal/mol,,
N=C(N)NCCCC[C@@H](NC(=O)[C@H](Cc1ccc(-c2ccccc2)cc1)NC(=O)[C@H](Cc1c[nH]c2ccccc12)NC(=O)CCCN)C(N)=O (H-[GABA]W[Bip][d(hArg)]-NH2),270 nM,-9.26 kcal/mol,0.3 kcal/mol,,
N=C(N)Nc1ccc(C[C@H](NC(=O)[C@H](Cc2ccc(-c3ccccc3)cc2)NC(=O)[C@H](Cc2c[nH]c3ccccc23)NC(=O)CCCN)C(N)=O)cc1 (H-[GABA]W[Bip][Phe(4-guanidino)]-NH2),1160 nM,-9.43 kcal/mol,1.33 kcal/mol,,
N=C(N)NCCCC[C@H](NC(=O)[C@H](Cc1ccc(-c2ccccc2)cc1)NC(=O)[C@H](Cc1c[nH]c2ccccc12)NC(=O)CCCN)C(N)=O (H-[GABA]W[Bip][hArg]-NH2),663 nM,-10.7 kcal/mol,2.27 kcal/mol,,
NCCCC[C@H](NC(=O)[C@H](Cc1ccc(-c2ccccc2)cc1)NC(=O)[C@H](Cc1c[nH]c2ccc(O)cc12)NC(=O)CCCN)C(N)=O (H-[GABA][Trp(5-OH)][Bip]K-NH2),437 nM,-11.2 kcal/mol,2.54 kcal/mol,,
N=C(N)NCCCC[C@H](NC(=O)[C@H](Cc1ccc(-c2ccccc2)cc1)NC(=O)[C@H](Cc1c[nH]c2ccc(O)cc12)NC(=O)CCCN)C(=O)NCC(=O)Nc1ccccc1 (H-[GABA][Trp(5-OH)][Bip][hArg]G-NHPh),132 nM,-12.3 kcal/mol,2.87 kcal/mol,,
N=C(N)NCCCC[C@H](NC(=O)[C@H](Cc1ccc2ccccc2c1)NC(=O)[C@H](Cc1c[nH]c2ccc(O)cc12)NC(=O)CCCN)C(N)=O (H-[GABA][Trp(5-OH)][2Nal][hArg]-NH2),5250 nM,-8.49 kcal/mol,1.27 kcal/mol,,
"COc1ccccc1-c1ccc(C[C@H](NC(=O)[C@H](Cc2c[nH]c3ccc(O)cc23)NC(=O)[C@H]2CCC[C@H](N)C2)C(=O)N[C@@H](CCCCNC(=N)N)C(=O)NCC(=O)Nc2ccc(N3CCOCC3)cc2)cc1 ({Cyclohexanoyl(1S,3S-3-NH2)}-[Trp(5-OH)][Phe(4-(2-MeO-Ph))][hArg]G-{NH(4-morpholinophenyl)})",106 nM,,,> 50 mM,Not Active
N=C(N)NCCCC[C@H](NC(=O)[C@H](Cc1ccc(-c2ccccc2)cc1)NC(=O)[C@H](Cc1c[nH]c2ccc(O)cc12)NC(=O)CCCN)C(=O)NCC(=O)NCc1ccccc1O (H-[GABA][Trp(5-OH)][Bip][hArg]G-X1),258 nM,-12 kcal/mol,3 kcal/mol,,
N=C(N)NCCCC[C@H](NC(=O)[C@H](Cc1ccc(-c2ccccc2)cc1)NC(=O)[C@H](Cc1c[nH]c2ccccc12)NC(=O)CCN)C(N)=O (HELM PEPTIDE1{[bAla].W.[O=C([C@H](Cc1ccc(-c2ccccc2)cc1)N[*:1])[*:2]].[N=C(N)NCCCC[C@H](N[*:1])C(=O)[*:2]].[am]}$$$$V2.0),2130 nM,-11.5 kcal/mol,3.77 kcal/mol,,
N=C(N)NCCCC[C@H](NC(=O)[C@H](Cc1cccc2ccccc12)NC(=O)[C@H](Cc1c[nH]c2ccc(O)cc12)NC(=O)CCCN)C(N)=O (H-[GABA][Trp(5-OH)][1Nal][hArg]-NH2),,-8.22 kcal/mol,1.46 kcal/mol,,
N=C(N)NCCCC[C@H](NC(=O)[C@H](Cc1ccc(-c2ccccc2)cc1)NC(=O)[C@H](Cc1c[nH]c2ccc(O)cc12)NC(=O)CCCN)C(=O)NCC(=O)Nc1ccccc1O (H-[GABA][Trp(5-OH)][Bip][hArg]G-X2),191 nM,-12 kcal/mol,2.88 kcal/mol,,
C[C@H](N)C(=O)N[C@@H](Cc1c[nH]c2ccccc12)C(=O)N[C@@H](Cc1ccc(-c2ccccc2)cc1)C(=O)N[C@@H](CCCCNC(=N)N)C(N)=O (HELM PEPTIDE1{A.W.[O=C([C@H](Cc1ccc(-c2ccccc2)cc1)N[*:1])[*:2]].[N=C(N)NCCCC[C@H](N[*:1])C(=O)[*:2]].[am]}$$$$V2.0),3020 nM,-9.54 kcal/mol,2.01 kcal/mol,,
COc1ccc2c(C[C@H](NC(=O)CCCN)C(=O)N[C@@H](Cc3ccc(-c4ccccc4)cc3)C(=O)N[C@@H](CCCCNC(=N)N)C(N)=O)c[nH]c2c1 (H-[GABA][Trp(6-OMe)][Bip][hArg]-NH2),2460 nM,-10.5 kcal/mol,2.84 kcal/mol,,
Cc1ccccc1-c1ccc(C[C@H](NC(=O)[C@H](Cc2c[nH]c3ccc(O)cc23)NC(=O)CCCN)C(=O)N[C@@H](CCCCNC(=N)N)C(N)=O)cc1,362 nM,-12.1 kcal/mol,3.29 kcal/mol,,
Cc1ccc(-c2ccc(C[C@H](NC(=O)[C@H](Cc3c[nH]c4ccc(O)cc34)NC(=O)CCCN)C(=O)N[C@@H](CCCCNC(=N)N)C(N)=O)cc2)cc1,708 nM,-10.2 kcal/mol,1.77 kcal/mol,,
N=C(N)NCCCC[C@H](NC(=O)[C@H](Cc1ccc(-c2ccccc2)cc1)NC(=O)[C@H](Cc1c[nH]c2ncccc12)NC(=O)CCCN)C(N)=O (H-[GABA][Trp(7-aza)][Bip][hArg]-NH2),16300 nM,-7.27 kcal/mol,0.74 kcal/mol,,
N=C(N)NCCCC[C@H](NC(=O)[C@H](Cc1ccc(-c2ccccc2)cc1)NC(=O)[C@H](Cc1c[nH]c2ccc(O)cc12)NC(=O)CCCN)C(=O)NCC(=O)Nc1ccc(CN2CCOCC2)cc1 (H-[GABA][Trp(5-OH)][Bip][hArg]G-{NHPh(4-CH2-morpholino)}),106 nM,-10.6 kcal/mol,1.05 kcal/mol,,
N=C(N)NCCCC[C@H](NC(=O)[C@H](Cc1ccc(-c2ccccc2)cc1)NC(=O)[C@H](Cc1c[nH]c2ccc(O)cc12)NC(=O)[C@H]1CC[C@H](N)C1)C(N)=O,1120 nM,-8.33 kcal/mol,0.21 kcal/mol,,
N=C(N)NCCCC[C@H](NC(=O)[C@H](Cc1ccc(-c2ccc(Cl)cc2)cc1)NC(=O)[C@H](Cc1c[nH]c2ccc(O)cc12)NC(=O)CCCN)C(N)=O,749 nM,-10.4 kcal/mol,2 kcal/mol,,
COc1cc(CNC(=O)CNC(=O)[C@H](CCCCNC(=N)N)NC(=O)[C@H](Cc2ccc(-c3ccccc3)cc2)NC(=O)[C@H](Cc2c[nH]c3ccc(O)cc23)NC(=O)CCCN)cc(OC)c1 (H-[GABA][Trp(5-OH)][Bip][hArg]G-X4),307 nM,-11.3 kcal/mol,2.39 kcal/mol,,
N=C(N)NCCC[C@H](NC(=O)[C@H](Cc1ccc(-c2ccccc2)cc1)NC(=O)[C@H](Cc1c[nH]c2ccc(O)cc12)NC(=O)CCCN)C(N)=O (H-[GABA][Trp(5-OH)][Bip]R-NH2),459 nM,-11 kcal/mol,2.35 kcal/mol,,
"COc1ccccc1-c1ccc(C[C@H](NC(=O)[C@H](Cc2c[nH]c3ccc(O)cc23)NC(=O)[C@H]2CCC[C@H](N)C2)C(=O)N[C@@H](CCCCNC(=N)N)C(=O)NCC(=O)Nc2ccc(CN3CCOCC3)cc2)cc1 ({Cyclohexanoyl(1S,3S-3-NH2)}-[Trp(5-OH)][Phe(4-(2-MeO-Ph))][hArg]G-{NHPh(4-CH2-morpholino)})",77 nM,,,> 50 mM,Not Active
N=C(N)NCCCC[C@H](NC(=O)[C@H](Cc1ccc(-c2ccccc2)cc1)NC(=O)[C@H](Cc1c[nH]c2ccc(O)cc12)NC(=O)[C@H]1CCC[C@H](N)C1)C(N)=O,370 nM,-8.1 kcal/mol,-0.67 kcal/mol,,
